Reference: PMC6585632 (Clinical Pharmacology in Drug Development, 2018)
Where “and” joins values, the source holds several entries; their conditions need not be identical. Equal entries are not always repeated. Entries after “also recorded” stand apart in the source; their conditions may differ. Where two headings read alike, the source gives them in different places. Marks after values point to notes of the source that are not given here.

How the values were obtained:
[1] = format: in vivo, human; settings: for Steady state reached by: plasma trough concentrations; for Arithmetic Mean CLss/F (CV%): day 15 steady state
[2] = Effect of a high-fat meal on single-dose pharmacokinetics; format: in vivo, human; settings: for AUC / Cmax / half-life / Tmax: human, plasma, oral; for AUC: AUC0‐24h
[3] = Steady-state pharmacokinetics in food effect cohorts; format: in vivo, human; settings: for Tmax / Cmax / AUC / half-life: human, plasma, oral; for Cmax / AUC / half-life: cycle 1 day 15 steady state; for AUC: AUC0‐t
[4] = Dose proportionality at steady state; format: in vivo, human; settings: 40–500 mg QD and 240–840 mg BID
[5] = Safety: treatment-emergent adverse events; format: in vivo, human
human hepatocytes = settings: incubation with human hepatocytes; ref Clovis Oncology, Inc., data on file; cited from earlier work
[6] = incubation with human liver microsomes; ref Clovis Oncology, Inc., data on file; cited from earlier work
[7] = system: Recombinant human cytochrome P450 (CYP) 2D6; settings: recombinant human CYP2D6; ref Clovis Oncology, Inc., data on file; cited from earlier work
[8] = normal metabolizers vs hyperinducers; cited from earlier work
[9] = Part 3, single dose 600 mg, fasted
[10] = Part 3, single dose 600 mg, fed
[11] = Part 3, single dose 600 mg, high‐fat meal
[12] = 40 mg, arithmetic mean, Part 1, single dose 40 mg, cycle 1 day –7 fasted, n 3
[13] = 40 mg, median, Part 1, single dose 40 mg, cycle 1 day –7 fasted, n 3
[14] = 40 mg, median, Part 1, single dose 40 mg, cycle 1 day 1 fed (high-fat meal), n 3
[15] = Part 3, 600 mg BID (n = 26), Grade 5

For `CNCc1ccc(-c2[nH]c3cc(F)cc4c3c2CCNC4=O)cc1` [rucaparib], the “steady‐state accumulation ratio (Rac_AUC0‐12h), range over cohorts” value ([1]; BID dosing 240‐840 mg) was 1.47 to 5.44, the “Estimated mean CLss/F, range over cohorts” value ([1]; BID dosing schedule) was 26.2 to 58.6 L/h and the “Steady state reached by” value ([1]; BID dosing schedule) was at most 8 cycle 1 day. For the same compound, the “Arithmetic Mean CLss/F (CV%)” value ([1]; Part 1, 40 mg QD oral) was 26.7 (59) L/h, the “Arithmetic Mean CLss/F (CV%)” value ([1]; Part 1, 80 mg QD oral) was 47.5 (23) L/h and the “Arithmetic Mean CLss/F (CV%)” value ([1]; Part 1, 160 mg QD oral, n = 3) was 41.6 (29) ^b L/h. The “Arithmetic Mean CLss/F (CV%)” value ([1]; Part 1, 240 mg BID oral, n = 2) was 27.3 ^a L/h, the “Arithmetic Mean CLss/F (CV%)” value ([1]; Part 1, 300 mg QD oral) was 46.7 (63) L/h and the “Arithmetic Mean CLss/F (CV%)” value ([1]; Part 1, 360 mg BID oral, n = 2) was 40.4 ^a L/h. For the same compound, the “Arithmetic Mean CLss/F (CV%)” value ([1]; Part 1, 480 mg BID oral, n = 6) was 26.2 (63) ^d L/h, the “Arithmetic Mean CLss/F (CV%)” value ([1]; Part 1, 500 mg QD oral) was 27.8 (35) L/h and the “Arithmetic Mean CLss/F (CV%)” value ([1]; Part 1, 600 mg BID oral, n = 4) was 58.6 (123) ^g L/h. The “Arithmetic Mean CLss/F (CV%)” value ([1]; Part 1, 840 mg BID oral, n = 1) was 29 ^c L/h, the “Rac_Cmax at steady state, range over cohorts” value ([1]; Part 1 BID cohorts) was 2.6 to 4.9 and the “Rac_Cmax at steady state, range over cohorts” value ([1]; Part 1 QD cohorts) was 1.06 to 1.8. The “steady‐state accumulation ratio (Rac_AUC0‐24h), range over cohorts” value ([1]; QD dosing 40‐500 mg) was 1.60 to 2.33 and 1.6 to 2.33, the “Estimated mean CLss/F, range over cohorts” value ([1]; QD dosing schedule) was 26.7 to 47.5 L/h and the “Steady state reached by” value ([1]; QD dosing schedule) was at most 8 cycle 1 day. The “CLss as share of the normal liver blood flow rate (1450 mL/min)” value ([1]; at tested oral dose levels) was at most 24%, the “CLss, estimated from CLss/F and oral bioavailability of 36%” value ([1]; at tested oral dose levels) was at most 350 mL/min and the Cmax ([1]; human, plasma, oral, 500 mg, mean Cmax, range over cohorts, Part 1 QD cohorts 40‐500 mg, cycle 1 day 1 single dose) was 114 to 949 ng/mL. It also gave a Tmax ([1]; human, plasma, oral, Median tmax, range over cohorts, Part 1 QD cohorts) of 1.5 to 4 h, a Tmax ([1]; human, plasma, oral, cohort median tmax, range, across all doses and tablet strengths tested (Parts 1 and 3)) of 1.5 to 6 h and a Tmax ([1]; human, plasma, po, 360 mg, Median tmax (range), Part 1, 360 mg BID oral, day 1) of 3.23 h. For the same compound, the “effect of food (high‐fat meal) on rucaparib pharmacokinetics” value ([2]; Part 1, single dose of 40 mg (n = 3) or 300 mg (n = 6)) was “No effect of food; also recorded: Minimal food effect”, the “median tmax delay by a high‐fat meal” value ([2]; Part 3, single dose 600 mg) was 2.5 h and the “intersubject variability (CV%) of the geometric mean AUC0‐24h” value [2, 9] was 84.6%. For the same compound, the “intersubject variability (CV%) of the geometric mean Cmax” value [2, 9] was 87.5%, the “intersubject variability (CV%) of the geometric mean AUC0‐24h” value [2, 10] was 86.8% and the “intersubject variability (CV%) of the geometric mean Cmax” value [2, 10] was 82.8%. The “fed‐to‐fasted geometric mean ratio (90%CI) for AUC0‐24h” value [2, 11] was 138%, the “fed‐to‐fasted geometric mean ratio (90%CI) for Cmax” value [2, 11] was 120% and the AUC ([2]; 40 mg, arithmetic mean, Part 1, single dose 40 mg, cycle 1 day 1 fed (high-fat meal), n 2) was 794 ng·h/mL. The AUC [2, 12] was 741 ng·h/mL, the AUC ([2]; 40 mg, median, Part 1, single dose 40 mg, cycle 1 day 1 fed (high-fat meal), n 2) was 794 ng·h/mL and the AUC [2, 13] was 468 ng·h/mL. The Cmax ([2]; 40 mg, arithmetic mean, Part 1, single dose 40 mg, cycle 1 day 1 fed (high-fat meal), n 3) was 64.8 ng/mL, the Cmax [2, 12] was 77.9 ng/mL and the Cmax [2, 14] was 71.1 ng/mL. It also gave a Cmax [2, 13] of 57.6 ng/mL, a half-life ([2]; 40 mg, t1/2, arithmetic mean, Part 1, single dose 40 mg, cycle 1 day 1 fed (high-fat meal), n 3) of 12.6 h and a half-life ([2]; 40 mg, t1/2, arithmetic mean, Part 1, single dose 40 mg, cycle 1 day –7 fasted, n 3) of 10.6 h. For the same compound, the half-life ([2]; 40 mg, t1/2, median, Part 1, single dose 40 mg, cycle 1 day 1 fed (high-fat meal), n 3) was 12.7 h, the half-life ([2]; 40 mg, t1/2, median, Part 1, single dose 40 mg, cycle 1 day –7 fasted, n 3) was 8.16 h and the Tmax [2, 14] was 2.55 h. For the same compound, the Tmax [2, 13] was 4 h, the AUC ([2]; 300 mg, arithmetic mean, Part 1, single dose 300 mg, cycle 1 day 1 fed (high-fat meal), n 5) was 6890 ng·h/mL and the “Mean (CV%) steady‐state CLss/F” value ([3]; continuous 600 mg BID, Part 3, CV 45%) was 44.2 L/h. The Tmax ([3]; 40 mg) was 4 h, the Cmax ([3]; 40 mg, arithmetic mean, Part 1 food effect cohort, 40 mg QD, n 3) was 129 ng/mL and the Cmax ([3]; 40 mg, median, Part 1 food effect cohort, 40 mg QD, n 3) was 103 ng/mL. The Tmax ([3]; 300 mg) was 2.47 h, the AUC ([3]; 300 mg, arithmetic mean, Part 1 food effect cohort, 300 mg QD, t = 24 hours, n 3) was 13300 ng·h/mL and the AUC ([3]; 300 mg, median, Part 1 food effect cohort, 300 mg QD, t = 24 hours, n 3) was 5220 ng·h/mL. The Cmax ([3]; 300 mg, arithmetic mean, Part 1 food effect cohort, 300 mg QD, n 5) was 727 ng/mL, the Cmax ([3]; 300 mg, median, Part 1 food effect cohort, 300 mg QD, n 5) was 444 ng/mL and the half-life ([3]; 300 mg, t1/2, arithmetic mean, Part 1 food effect cohort, 300 mg QD, n 3) was 20 h. It also gave a half-life ([3]; 300 mg, t1/2, median, Part 1 food effect cohort, 300 mg QD, n 3) of 27.5 h, a Tmax ([3]; 600 mg) of 1.92 h and an AUC ([3]; 600 mg, arithmetic mean, Part 3, 600 mg BID, t = 10 hours, n 18) of 15800 ng·h/mL. The AUC ([3]; 600 mg, median, Part 3, 600 mg BID, t = 10 hours, n 18) was 12900 ng·h/mL, the Cmax ([3]; 600 mg, arithmetic mean, Part 3, 600 mg BID, n 18) was 1940 ng/mL and the Cmax ([3]; 600 mg, median, Part 3, 600 mg BID, n 18) was 1480 ng/mL. The “dose proportionality of plasma exposure” value [4] was “approximately dose proportional”, the “deaths due to disease progression” value ([5]; Part 1) was “Three” and the “treatment‐related deaths” value ([5]; Part 1) was “No treatment‐related deaths”. For the same compound, the “treatment‐related deaths” value ([5]; Part 3, 600 mg BID) was “No treatment‐related deaths”, the Dyspnea [5, 15] was 1 (3.8%) n (%) and the Pulmonary embolism [5, 15] was 1 (3.8%) n (%). The metabolic turnover rate (human hepatocytes) was “slow metabolic turnover rates”, the metabolic turnover rate [6] was “slow metabolic turnover rates” and the “metabolism by recombinant enzyme” value [7] was “able to metabolize rucaparib”. For the same compound, the “effect of CYP1A2 polymorphisms on pharmacokinetics” value [8] was “no apparent effect”.
